Measurements: patent US12077503B2, “Substituted cyclic amides and their use as herbicides” (FMC CORPORATION, priority 2015, dated 2024)

What was measured:
Assay type in all cases: in vivo
[1] = system: barnyardgrass (Echinochloa crus-galli); assay: Test A preemergence; details: for Barnyardgrass plant response rating (0 to 100 scale): Preemergence, 0 is no effect, 100 is complete control
Procedure, shortened: (§1)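 Greenhouse, ~10 d after spray; visual injury vs untreated controls, 0 = no effect, 100 = complete control. Preemergence: directed soil spray over planted seeds. Postemergence: plants 2–10 cm, 1–2 leaf stage. Loam/sand blend. Compound in non-phytotoxic solvent with surfactant.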

corn (Zea mays) [2] = assay: Test A preemergence; details: for Corn plant response rating (0 to 100 scale): Preemergence, 0 is no effect, 100 is complete control
Procedure, shortened: as §1

[3] = system: crabgrass, large (Digitaria sanguinalis); assay: Test A preemergence; details: for Crabgrass, Large plant response rating (0 to 100 scale): Preemergence, 0 is no effect, 100 is complete control
Procedure, shortened: as §1

[4] = system: giant foxtail (Setaria faberii); assay: Test A preemergence; details: for Foxtail, Giant plant response rating (0 to 100 scale): Preemergence, 0 is no effect, 100 is complete control
Procedure, shortened: as §1

[5] = system: morningglory (Ipomoea spp.); assay: Test A preemergence; details: for Morningglory plant response rating (0 to 100 scale): Preemergence, 0 is no effect, 100 is complete control
Procedure, shortened: as §1

[6] = system: pigweed (Amaranthus retroflexus); assay: Test A preemergence; details: for Pigweed plant response rating (0 to 100 scale): Preemergence, 0 is no effect, 100 is complete control
[7] = system: velvetleaf (Abutilon theophrasti); assay: Test A preemergence; details: for Velvetleaf plant response rating (0 to 100 scale): Preemergence, 0 is no effect, 100 is complete control
Procedure, shortened: as §1

[8] = system: wheat (Triticum aestivum); assay: Test A preemergence; details: for Wheat plant response rating (0 to 100 scale): Preemergence, 0 is no effect, 100 is complete control
Procedure, shortened: as §1

[9] = system: barnyardgrass (Echinochloa crus-galli); assay: Test A postemergence
Procedure, shortened: as §1

corn (Zea mays) [10] = assay: Test A postemergence
Procedure, shortened: as §1

[11] = system: crabgrass, large (Digitaria sanguinalis); assay: Test A postemergence
Procedure, shortened: as §1

[12] = system: giant foxtail (Setaria faberii); assay: Test A postemergence
Procedure, shortened: as §1

[13] = system: morningglory (Ipomoea spp.); assay: Test A postemergence
Procedure, shortened: as §1

[14] = system: pigweed (Amaranthus retroflexus); assay: Test A postemergence
Procedure, shortened: as §1

[15] = system: velvetleaf (Abutilon theophrasti); assay: Test A postemergence
Procedure, shortened: as §1

[16] = system: wheat (Triticum aestivum); assay: Test A postemergence
Procedure, shortened: as §1

[17] = system: barnyardgrass (Echinochloa crus-galli); assay: Test B flooded paddy test; details: Flood, 250 g ai/ha; 0 to 100 scale where 0 is no effect and 100 is complete control; 13 to 15 d
Procedure, shortened: (§2)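 Evaluation by eye, against controls, occurred 13–15 d post-treatment in a greenhouse, using a 0 (no effect) to 100 (complete control) scale. Application was into the paddy water, 3 cm deep over the soil, on 2-leaf plants.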

[18] = system: ducksalad (Heteranthera limosa); assay: Test B flooded paddy test; details: Flood, 250 g ai/ha; 0 to 100 scale where 0 is no effect and 100 is complete control; 13 to 15 d
Procedure, shortened: as §2

rice (Oryra sativa) = assay: Test B flooded paddy test; details: Flood, 250 g ai/ha; 0 to 100 scale where 0 is no effect and 100 is complete control; 13 to 15 d
Procedure, shortened: as §2

[19] = system: sedge, umbrella (small-flower umbrella sedge, Cyperus difformis); assay: Test B flooded paddy test; details: Flood, 250 g ai/ha; 0 to 100 scale where 0 is no effect and 100 is complete control; 13 to 15 d
Procedure, shortened: as §2

[20] = 1000 g ai/ha, postemergence, 0 to 100 scale, 0 no effect, 100 complete control
[21] = 125 g ai/ha, preemergence, 0 to 100 scale (0 no effect, 100 complete control)
[22] = 500 g ai/ha, postemergence, 0 to 100 scale, 0 no effect, 100 complete control
[23] = Postemergence, 125 g ai/ha, visual injury, 0 to 100 scale (0 no effect, 100 complete control), approx. 10 d

Nc1c(NC(=O)C2C(=O)NCC2c2ccc(F)c(F)c2)ccc(F)c1F (racemic) [Compound 358] was tested, and the “Barnyardgrass plant response rating (0 to 100 scale)” value ([1]; 1000 g ai/ha) was 0, the “Corn plant response rating (0 to 100 scale)” value (corn (Zea mays) [2]; 1000 g ai/ha) was 0 and the “Crabgrass, Large plant response rating (0 to 100 scale)” value ([3]; 1000 g ai/ha) was 50. The “Foxtail, Giant plant response rating (0 to 100 scale)” value ([4]; 1000 g ai/ha) was 0, the “Morningglory plant response rating (0 to 100 scale)” value ([5]; 1000 g ai/ha) was 0 and the “Pigweed plant response rating (0 to 100 scale)” value ([6]; 1000 g ai/ha) was 0. The “Velvetleaf plant response rating (0 to 100 scale)” value ([7]; 1000 g ai/ha) was 0, the “Wheat plant response rating (0 to 100 scale)” value ([8]; 1000 g ai/ha) was 0 and the “Plant response rating, Barnyardgrass” value [9, 20] was 0. For the same compound, the “Plant response rating, Corn” value (corn (Zea mays) [10]; [20]) was 0, the “Plant response rating, Crabgrass, Large” value [11, 20] was 40 and the “Plant response rating, Foxtail, Giant” value [12, 20] was 30. For the same compound, the “Plant response rating, Morningglory” value [13, 20] was 0, the “Plant response rating, Pigweed” value [14, 20] was 0 and the “Plant response rating, Velvetleaf” value [15, 20] was 0. For the same compound, the “Plant response rating, Wheat” value [16, 20] was 0.

For Cn1nccc1NC(=O)C1C(=O)NCC1c1ccc(F)c(F)c1 (racemic) [Compound 362], the “Plant response rating, Barnyardgrass” value [1, 21] was 0, the “Barnyardgrass plant response rating (0 to 100 scale)” value ([1]; 500 g ai/ha) was 0 and the “Plant response rating, Corn” value (corn (Zea mays) [2]; [21]) was 0. For the same compound, the “Corn plant response rating (0 to 100 scale)” value (corn (Zea mays) [2]; 500 g ai/ha) was 0, the “Plant response rating, Crabgrass, Large” value [3, 21] was 0 and the “Crabgrass, Large plant response rating (0 to 100 scale)” value ([3]; 500 g ai/ha) was 0. For the same compound, the “Plant response rating, Foxtail, Giant” value [4, 21] was 0, the “Foxtail, Giant plant response rating (0 to 100 scale)” value ([4]; 500 g ai/ha) was 0 and the “Plant response rating, Morningglory” value [5, 21] was 0. For the same compound, the “Morningglory plant response rating (0 to 100 scale)” value ([5]; 500 g ai/ha) was 0, the “Plant response rating, Pigweed” value [6, 21] was 0 and the “Pigweed plant response rating (0 to 100 scale)” value ([6]; 500 g ai/ha) was 0. For the same compound, the “Plant response rating, Velvetleaf” value [7, 21] was 0, the “Velvetleaf plant response rating (0 to 100 scale)” value ([7]; 500 g ai/ha) was 0 and the “Plant response rating, Wheat” value [8, 21] was 0. The “Wheat plant response rating (0 to 100 scale)” value ([8]; 500 g ai/ha) was 0, the “Plant response rating, Barnyardgrass” value [9, 22] was 0 and the “Plant response rating, Barnyardgrass” value [9, 23] was 0. The “Plant response rating, Corn” value (corn (Zea mays) [10]; [22]) was 0, the “Plant response rating, Corn” value (corn (Zea mays) [10]; [23]) was 0 and the “Plant response rating, Crabgrass, Large” value [11, 22] was 0. The “Plant response rating, Crabgrass, Large” value [11, 23] was 0, the “Plant response rating, Foxtail, Giant” value [12, 22] was 0 and the “Plant response rating, Foxtail, Giant” value [12, 23] was 0. The “Plant response rating, Morningglory” value [13, 22] was 0, the “Plant response rating, Morningglory” value [13, 23] was 0 and the “Plant response rating, Pigweed” value [14, 22] was 0. For the same compound, the “Plant response rating, Pigweed” value [14, 23] was 0, the “Plant response rating, Velvetleaf” value [15, 22] was 0 and the “Plant response rating, Velvetleaf” value [15, 23] was 0. The “Plant response rating, Wheat” value [16, 22] was 0, the “Plant response rating, Wheat” value [16, 23] was 0 and the “Plant response rating, Barnyardgrass” value [17] was 0. The “Plant response rating, Ducksalad” value [18] was 0, the “Plant response rating, Rice” value (rice (Oryra sativa)) was 0 and the “Plant response rating, Sedge, Umbrella” value [19] was 0.
